Source: patent publication US20260234129A1, “NOVEL IMIDAZOLE DERIVATIVE AND USE THEREOF” (PELEMED CO., LTD., priority 2023, published 2026)

Legend:
Assay in all cases: scanMax kinase panel (Eurofins)
Format in all cases: binding
[1] = molecular target: T1, ABL1(F317I)-phosphorylated (Homo sapiens, UniProt P00519, F317I); details: read-out: % control
T1 construct: purchased Eurofins
Description: (§1) The following assay method was performed to evaluate the inhibitory activities of a compound according to the present invention with respect to various enzymes. […] The compound was applied to the enzyme at a concentration of 1 μM, dissolved in DMSO, and the % control was determined according to Equation 1 below.
(§2) Here, the positive control refers to a compound corresponding to 0% control, and the negative control refers to a compound corresponding to 100% control.

[2] = molecular target: T2, ABL1(M351T)-phosphorylated (Homo sapiens, UniProt P00519, M351T); details: read-out: % control
T2 construct: purchased Eurofins
Description: as §1, §2

[3] = molecular target: T3, ABL1(Q252H)-phosphorylated (Homo sapiens, UniProt P00519, Q252H); details: read-out: % control
T3 construct: purchased Eurofins
Description: as §1, §2

ABL1-nonphosphorylated = molecular target: T4, ABL1-nonphosphorylated (Homo sapiens, UniProt P00519); details: read-out: % control
T4 construct: purchased Eurofins
Description: as §1, §2

ABL1-phosphorylated = molecular target: T5, ABL1-phosphorylated (Homo sapiens, UniProt P00519); details: read-out: % control
T5 construct: purchased Eurofins
Description: as §1, §2

AURKA = molecular target: T6, AURKA (Homo sapiens, UniProt O14965); details: read-out: % control
T6 construct: purchased Eurofins
Description: as §1, §2

AXL = molecular target: T7, AXL (Homo sapiens, UniProt P30530); details: read-out: % control
T7 construct: purchased Eurofins
T7 sequence (P30530 26-894): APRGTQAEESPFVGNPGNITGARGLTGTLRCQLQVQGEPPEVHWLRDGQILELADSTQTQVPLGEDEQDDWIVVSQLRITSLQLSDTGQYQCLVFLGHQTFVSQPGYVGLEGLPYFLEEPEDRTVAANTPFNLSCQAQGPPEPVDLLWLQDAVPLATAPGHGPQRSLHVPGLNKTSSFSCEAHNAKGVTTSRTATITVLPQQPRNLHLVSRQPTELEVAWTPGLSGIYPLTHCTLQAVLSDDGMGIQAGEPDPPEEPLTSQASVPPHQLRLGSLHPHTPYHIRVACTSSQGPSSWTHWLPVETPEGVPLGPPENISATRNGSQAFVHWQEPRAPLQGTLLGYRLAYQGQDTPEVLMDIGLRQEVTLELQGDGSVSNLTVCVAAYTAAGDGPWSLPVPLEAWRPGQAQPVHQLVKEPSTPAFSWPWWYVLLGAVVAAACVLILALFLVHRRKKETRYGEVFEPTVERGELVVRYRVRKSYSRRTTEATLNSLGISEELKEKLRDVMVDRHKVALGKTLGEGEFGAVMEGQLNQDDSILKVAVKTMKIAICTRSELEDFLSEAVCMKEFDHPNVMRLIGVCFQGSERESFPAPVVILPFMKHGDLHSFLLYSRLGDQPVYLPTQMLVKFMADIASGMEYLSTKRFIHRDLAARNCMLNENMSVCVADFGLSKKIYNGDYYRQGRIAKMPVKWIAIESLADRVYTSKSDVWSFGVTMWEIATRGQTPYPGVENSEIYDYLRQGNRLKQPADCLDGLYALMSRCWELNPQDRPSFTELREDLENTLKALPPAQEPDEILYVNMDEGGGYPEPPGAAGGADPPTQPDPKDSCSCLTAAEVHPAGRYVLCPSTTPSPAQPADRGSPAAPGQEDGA
Description: as §1, §2

CDK2 = molecular target: T8, CDK2 (Homo sapiens, UniProt P24941); details: CDK2, 1 μM; read-out: % control
T8 construct: purchased Eurofins
Description: as §1, §2

DYRK1B = molecular target: T9, DYRK1B (Homo sapiens, UniProt Q9Y463); details: read-out: % control
T9 construct: purchased Eurofins scanMax® kinase panel
Description: as §1, §2

DYRKIA = molecular target: T10, DYRKIA (Homo sapiens, UniProt Q13627); details: read-out: % control
T10 construct: purchased Eurofins scanMax® kinase panel
Description: as §1, §2

ERK1 = molecular target: T11, ERK1 (Homo sapiens, UniProt P27361); details: ERK1, 1 μM; read-out: % control
T11 construct: purchased Eurofins scanMax® kinase panel
Description: as §1, §2

ERK2 = molecular target: T12, ERK2 (Homo sapiens, UniProt P28482); details: ERK2, 1 μM; read-out: % control
T12 construct: purchased Eurofins scanMax® kinase panel
T12 sequence (P28482 whole entry): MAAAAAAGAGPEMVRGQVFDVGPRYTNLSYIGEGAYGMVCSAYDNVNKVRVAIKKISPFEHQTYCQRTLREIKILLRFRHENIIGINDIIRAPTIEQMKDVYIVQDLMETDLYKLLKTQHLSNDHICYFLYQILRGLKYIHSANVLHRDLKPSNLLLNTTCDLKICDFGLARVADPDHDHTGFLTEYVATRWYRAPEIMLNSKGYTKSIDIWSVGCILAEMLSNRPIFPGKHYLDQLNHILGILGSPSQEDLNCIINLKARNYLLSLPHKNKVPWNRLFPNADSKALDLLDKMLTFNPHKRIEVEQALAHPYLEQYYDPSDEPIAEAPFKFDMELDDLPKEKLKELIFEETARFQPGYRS
Description: as §1, §2

HIPK3 = molecular target: T13, HIPK3 (Homo sapiens, UniProt Q9H422); details: HIPK3, 1 μM; read-out: % control
T13 construct: purchased Eurofins
Description: as §1, §2

HIPK4 = molecular target: T14, HIPK4 (Homo sapiens, UniProt Q8NE63); details: HIPK4, 1 μM; read-out: % control
T14 construct: purchased Eurofins
Description: as §1, §2

IRAK3 = molecular target: T15, IRAK3 (Homo sapiens, UniProt Q9Y616); details: IRAK3, 1 μM; read-out: % control
T15 construct: purchased Eurofins
T15 sequence (Q9Y616 whole entry): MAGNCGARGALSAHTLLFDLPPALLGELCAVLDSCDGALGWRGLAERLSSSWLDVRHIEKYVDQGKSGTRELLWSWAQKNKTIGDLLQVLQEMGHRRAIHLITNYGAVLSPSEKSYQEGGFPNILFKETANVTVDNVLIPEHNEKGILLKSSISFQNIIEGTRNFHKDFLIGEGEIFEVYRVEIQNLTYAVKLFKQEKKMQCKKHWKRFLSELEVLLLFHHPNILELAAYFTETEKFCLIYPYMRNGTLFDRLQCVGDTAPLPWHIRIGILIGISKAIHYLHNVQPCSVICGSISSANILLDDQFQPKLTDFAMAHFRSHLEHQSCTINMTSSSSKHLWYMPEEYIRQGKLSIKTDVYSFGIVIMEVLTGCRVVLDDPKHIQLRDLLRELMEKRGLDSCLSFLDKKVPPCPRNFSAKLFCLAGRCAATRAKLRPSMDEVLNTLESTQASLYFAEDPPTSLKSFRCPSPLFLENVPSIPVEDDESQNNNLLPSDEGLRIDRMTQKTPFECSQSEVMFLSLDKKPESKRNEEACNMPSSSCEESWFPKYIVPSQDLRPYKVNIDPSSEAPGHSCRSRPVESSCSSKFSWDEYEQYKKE
Description: as §1, §2

IRAK4 = molecular target: T16, IRAK4 (Homo sapiens, UniProt Q9NWZ3); details: IRAK4, 1 μM; read-out: % control
T16 construct: purchased Eurofins
Description: as §1, §2

IRAKI = molecular target: T17, IRAKI (Homo sapiens, UniProt P51617); details: read-out: % control
T17 construct: purchased Eurofins
T17 sequence (P51617 whole entry): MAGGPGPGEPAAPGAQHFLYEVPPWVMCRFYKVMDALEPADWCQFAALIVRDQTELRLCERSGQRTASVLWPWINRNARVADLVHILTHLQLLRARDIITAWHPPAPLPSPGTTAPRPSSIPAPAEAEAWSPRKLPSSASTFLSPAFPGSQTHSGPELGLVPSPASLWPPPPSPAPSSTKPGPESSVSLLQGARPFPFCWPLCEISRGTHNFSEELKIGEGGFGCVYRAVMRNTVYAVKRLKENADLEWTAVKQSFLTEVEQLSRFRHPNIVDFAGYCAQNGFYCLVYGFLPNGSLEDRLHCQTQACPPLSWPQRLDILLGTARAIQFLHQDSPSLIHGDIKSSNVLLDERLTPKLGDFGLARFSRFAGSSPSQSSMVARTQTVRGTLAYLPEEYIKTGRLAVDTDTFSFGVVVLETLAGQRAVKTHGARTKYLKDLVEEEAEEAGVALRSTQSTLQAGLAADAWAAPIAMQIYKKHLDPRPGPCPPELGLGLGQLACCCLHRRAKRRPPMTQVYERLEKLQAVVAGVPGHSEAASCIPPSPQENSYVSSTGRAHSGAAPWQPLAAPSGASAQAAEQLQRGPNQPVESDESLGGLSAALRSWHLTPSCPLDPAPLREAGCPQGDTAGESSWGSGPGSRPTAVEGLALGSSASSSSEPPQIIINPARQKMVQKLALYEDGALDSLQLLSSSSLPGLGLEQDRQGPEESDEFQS
Description: as §1, §2

[4] = molecular target: T18, JAK1(JH2domain-pseudokinase) (Homo sapiens, UniProt P23458); details: read-out: % control
T18 construct: JAK1(JH2domain-pseudokinase); purchased Eurofins
Description: as §1, §2

[5] = molecular target: T19, JAK3(JH1domain-catalytic) (Homo sapiens, UniProt P52333); details: read-out: % control
T19 construct: JAK3(JH1domain-catalytic); purchased Eurofins
Description: as §1, §2

KIT(D816H) = molecular target: T20, KIT(D816H) (Homo sapiens, UniProt P10721, D816H); details: read-out: % control
T20 construct: purchased Eurofins
Description: as §1, §2

KIT(V559D) = molecular target: T21, KIT(V559D) (Homo sapiens, UniProt P10721, V559D); details: read-out: % control
T21 construct: purchased Eurofins
Description: as §1, §2

MEK2 = molecular target: T22, MEK2 (Homo sapiens, UniProt P36507); details: MEK2, 1 μM; read-out: % control
T22 construct: purchased Eurofins
Description: as §1, §2

MEK3 = molecular target: T23, MEK3 (Homo sapiens, UniProt P46734); details: MEK3, 1 μM; read-out: % control
T23 construct: purchased Eurofins
Description: as §1, §2

MEK6 = molecular target: T24, MEK6 (Homo sapiens, UniProt P52564); details: MEK6, 1 μM; read-out: % control
T24 construct: purchased Eurofins scanMax kinase panel
Description: as §1, §2

MEKI = molecular target: T25, MEKI (Homo sapiens, UniProt Q02750); details: read-out: % control
T25 construct: purchased Eurofins
Description: as §1, §2

PAK2 = molecular target: T26, PAK2 (Homo sapiens, UniProt Q13177); details: PAK2, 1 μM; read-out: % control
T26 construct: purchased Eurofins scanMax kinase panel
Description: as §1, §2

PAK4 = molecular target: T27, PAK4 (Homo sapiens, UniProt O96013); details: PAK4, 1 μM; read-out: % control
T27 construct: purchased Eurofins scanMax kinase panel
T27 sequence (O96013 whole entry): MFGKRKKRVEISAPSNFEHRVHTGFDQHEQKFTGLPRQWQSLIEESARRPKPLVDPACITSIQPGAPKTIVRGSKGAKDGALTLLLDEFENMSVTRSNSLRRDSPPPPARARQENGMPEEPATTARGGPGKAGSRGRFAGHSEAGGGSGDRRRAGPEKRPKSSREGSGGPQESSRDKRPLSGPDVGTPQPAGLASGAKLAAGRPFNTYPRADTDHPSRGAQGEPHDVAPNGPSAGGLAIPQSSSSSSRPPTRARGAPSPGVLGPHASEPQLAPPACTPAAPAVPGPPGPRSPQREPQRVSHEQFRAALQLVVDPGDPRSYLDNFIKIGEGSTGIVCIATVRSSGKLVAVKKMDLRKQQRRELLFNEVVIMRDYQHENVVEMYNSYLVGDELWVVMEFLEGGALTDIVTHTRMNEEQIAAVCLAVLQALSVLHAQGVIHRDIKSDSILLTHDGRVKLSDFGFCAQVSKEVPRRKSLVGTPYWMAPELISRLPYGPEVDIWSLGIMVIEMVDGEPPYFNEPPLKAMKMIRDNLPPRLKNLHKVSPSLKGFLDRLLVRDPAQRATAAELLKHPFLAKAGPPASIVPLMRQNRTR
Description: as §1, §2

PAK7 = molecular target: T28, PAK7 (Homo sapiens, UniProt Q9P286); details: PAK7, 1 μM; read-out: % control
T28 construct: purchased Eurofins scanMax kinase panel
T28 sequence (Q9P286 whole entry): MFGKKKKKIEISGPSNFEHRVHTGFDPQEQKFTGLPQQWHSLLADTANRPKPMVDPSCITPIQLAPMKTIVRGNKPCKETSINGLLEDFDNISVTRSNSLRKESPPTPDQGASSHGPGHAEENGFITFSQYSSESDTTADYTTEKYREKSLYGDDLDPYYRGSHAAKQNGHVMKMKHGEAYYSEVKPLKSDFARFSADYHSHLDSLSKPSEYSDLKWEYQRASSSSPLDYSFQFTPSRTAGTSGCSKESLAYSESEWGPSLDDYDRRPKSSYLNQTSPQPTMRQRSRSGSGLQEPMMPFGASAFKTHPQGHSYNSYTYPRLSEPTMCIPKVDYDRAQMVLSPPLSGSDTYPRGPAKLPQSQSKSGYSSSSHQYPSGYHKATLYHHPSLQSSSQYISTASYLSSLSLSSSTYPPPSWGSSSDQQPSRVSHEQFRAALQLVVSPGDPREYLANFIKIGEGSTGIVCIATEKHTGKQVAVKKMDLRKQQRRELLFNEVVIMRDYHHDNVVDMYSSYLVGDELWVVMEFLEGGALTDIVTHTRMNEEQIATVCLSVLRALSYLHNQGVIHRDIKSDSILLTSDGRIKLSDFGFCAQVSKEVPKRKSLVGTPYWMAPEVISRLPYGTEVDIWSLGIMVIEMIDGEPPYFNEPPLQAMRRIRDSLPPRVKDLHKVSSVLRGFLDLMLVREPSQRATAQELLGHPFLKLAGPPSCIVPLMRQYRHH
Description: as §1, §2

PIM3 = molecular target: T29, PIM3 (Homo sapiens, UniProt Q86V86); details: PIM3, 1 μM; read-out: % control
T29 construct: purchased Eurofins scanMax kinase panel
Description: as §1, §2

RET(V804M) = molecular target: T30, RET(V804M) (Homo sapiens, UniProt P07949, V804M); details: read-out: % control
T30 construct: purchased Eurofins scanMax kinase panel
Description: as §1, §2

ROCKI = molecular target: T31, ROCKI (Homo sapiens, UniProt Q13464); details: read-out: % control
T31 construct: purchased Eurofins scanMax kinase panel
Description: as §1, §2

TRKB = molecular target: T32, TRKB (Homo sapiens, UniProt Q16620); details: read-out: % control
T32 construct: purchased Eurofins scanMax kinase panel
Description: as §1, §2

TRKC = molecular target: T33, TRKC (Homo sapiens, UniProt Q16288); details: read-out: % control
T33 construct: purchased Eurofins scanMax kinase panel
T33 sequence (Q16288 32-839): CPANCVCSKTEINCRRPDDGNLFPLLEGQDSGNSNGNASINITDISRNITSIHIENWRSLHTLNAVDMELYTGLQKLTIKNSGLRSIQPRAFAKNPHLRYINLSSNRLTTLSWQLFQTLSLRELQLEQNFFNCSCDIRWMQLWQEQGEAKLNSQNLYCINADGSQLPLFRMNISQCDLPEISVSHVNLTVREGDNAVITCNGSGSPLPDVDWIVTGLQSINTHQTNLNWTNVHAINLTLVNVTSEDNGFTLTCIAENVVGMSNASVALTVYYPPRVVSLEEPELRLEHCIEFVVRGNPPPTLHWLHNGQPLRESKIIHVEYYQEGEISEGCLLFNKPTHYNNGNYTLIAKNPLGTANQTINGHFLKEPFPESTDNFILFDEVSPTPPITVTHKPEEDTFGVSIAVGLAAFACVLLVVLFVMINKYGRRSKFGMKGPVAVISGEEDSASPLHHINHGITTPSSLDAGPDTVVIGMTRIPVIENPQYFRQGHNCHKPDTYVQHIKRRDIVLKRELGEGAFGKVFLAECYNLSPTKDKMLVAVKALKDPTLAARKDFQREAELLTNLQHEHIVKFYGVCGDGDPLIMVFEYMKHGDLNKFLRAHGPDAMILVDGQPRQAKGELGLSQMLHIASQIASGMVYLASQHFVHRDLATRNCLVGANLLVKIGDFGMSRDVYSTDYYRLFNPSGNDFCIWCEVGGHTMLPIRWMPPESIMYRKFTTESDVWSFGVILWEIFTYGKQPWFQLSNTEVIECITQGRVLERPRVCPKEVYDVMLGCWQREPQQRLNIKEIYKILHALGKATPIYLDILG
Description: as §1, §2

YES1 = molecular target: T34, YES1 (Homo sapiens, UniProt P07947); details: YES1, 1 μM; read-out: % control
T34 construct: purchased Eurofins scanMax kinase panel
Description: as §1, §2

Measured: remaining binding at 1 µM

COc1ccc2nc(-c3n[nH]c4ccc(C(=O)N[C@H]5CC[C@H](N)C5)cc34)[nH]c2c1 [Example 32, N-((1S,3S)-3-aminocyclopentyl)-3-(6-methoxy-1H-benzo[d]imidazol-2-yl)-1H-indazole-5-carboxamide]
< 10%: all assays above
